Data taken from ChEMBL document CHEMBL1148936, “Benzoic acid derivatives from Piper species and their fungitoxic activity against Cladosporium cladosporioides and C. sphaerospermum” (2004).
Calls of active or inactive are those of the source. No cut-off for these calls is given here.

How the values were obtained:
[1] = test system: Cladosporium cladosporioides; assay: Antifungal activity against Cladosporium cladosporioides at 100 ug after 72 hrs by TLC; format: functional, organism-based
[2] = test system: Cladosporium sphaerospermum; assay: Antifungal activity against Cladosporium sphaerospermum at 100 ug after 72 hrs by TLC; format: functional, organism-based
[3] = test system: Cladosporium cladosporioides; assay: Antifungal activity against Cladosporium cladosporioides assessed as minimum concentration required to inhibit growth after 72 hrs by TLC; format: functional
[4] = test system: Cladosporium sphaerospermum; assay: Antifungal activity against Cladosporium sphaerospermum assessed as minimum concentration required to inhibit growth after 72 hrs by TLC; format: functional

Row | Compound | Activity [1] | Activity [2] | Activity [3] [µg] | Activity [4] [µg]
1 | COc1cc(O)c(C(=O)CCc2ccccc2)c(O)c1 | inactive | inactive | – | –
2 | COc1cc(CCC(=O)O)cc(OC)c1OC | – | – | 10 | 10
3 | CC(C)=CCC/C(C)=C/C(=O)c1cc(O)ccc1O | – | – | 1 | 1
4 | NYSTATIN | – | – | 1 | 1
5 | CC(C)=CCC[C@@]1(C)C=Cc2cc(C(=O)O)cc(CC=C(C)C)c2O1 | – | – | 10 | 10
6 | COc1cc(O)c2c(c1)O[C@H](c1ccc(O)cc1)CC2=O [SAKURANETIN] | – | – | 1 | 1
7 | COC(=O)c1cc(O)c2c(c1)C=CC(C)(C)O2 | – | – | 5 | 5
8 | COc1ccc(C(=O)O)cc1C/C=C(\C)CCC=C(C)C | inactive | inactive | – | –
9 | Clc1ccc(COC(Cn2ccnc2)c2ccc(Cl)cc2Cl)c(Cl)c1 (configuration not stated) [MICONAZOLE] | – | – | 1 | 1
10 | O=C1C[C@@H](c2ccccc2)Oc2cc(O)cc(O)c21 [PINOCEMBRIN] | – | – | 1 | 1
11 | CC(C)=CCC/C(C)=C/Cc1cc(C(=O)O)ccc1O | – | – | 5 | 5
12 | COC(=O)c1ccc(O)c([C@@H]2c3c(OC)cc(O)c(C(=O)CCc4ccccc4)c3O[C@H]2C(C)(C)O)c1 | inactive | inactive | – | –
13 | COC(=O)c1ccc(O)c(C(=O)C=C(C)C)c1 | inactive | inactive | – | –
14 | CC1(C)C=Cc2cc(C(=O)O)ccc2O1 | – | – | 5 | 5
15 | C=C(C)C(O)Cc1cc(C(=O)OC)ccc1O (configuration not stated) | – | – | 5 | 5
16 | COC(=O)c1cc(C(=O)C=C(C)C)ccc1OC [ADUNCUMENE] | – | – | 5 | 5
17 | COC(=O)c1ccc(O)c(CC(O)C(C)(C)O)c1 (configuration not stated) [HOSTMANIANE] | – | – | 0.5 | 0.5
18 | COC(=O)c1ccc2c(c1)C=CC(C)(C)O2 | – | – | 5 | 5
19 | COC(=O)c1cc2c(c(CC=C(C)C)c1)OC(C)(C)C=C2 | – | – | 0.1 | 0.1
20 | CC(C)=CCCC(C)(O)CC(=O)c1cc(C(=O)O)ccc1O (configuration not stated) [CRASSINERVIC ACID] | – | – | 0.5 | 0.5
21 | COC(=O)c1ccc(O)c(CC=C(C)C)c1 | – | – | 1 | 1
